Results on two molecules are retold here after PMC8998611, “Identification of Novel GSK-3β Hits Using Competitive Biophysical Assays” (International Journal of Molecular Sciences, 2022).

Assay [1] deals with T1, GSK-3β (Homo sapiens, UniProt P49841). Description: LANCE Ultra TR-FRET GSK-3β kinase inhibition assay (ULight-GS phosphorylation). Type of assay: biochemical. The conditions noted are these: 1 µM ATP, 50 nM ULight-GS; for inhibition at 1 µM: 1 μM compound; for inhibition at 1 µM / inhibition at 5 µM / inhibition at 50 µM / inhibition at 100 µM: mean ± SD; for inhibition at 5 µM: 5 μM compound; for inhibition at 50 µM: 50 μM compound; for inhibition at 100 µM: 100 μM compound; for IC50: dose-response 30 nM to 200 μM. The procedure:
To assess if the identified GSK-3β binders were also able to affect kinase activity, the inhibitory activity of the four identified hit compounds was tested at four concentrations (1-5-50-100 μM) using the LANCE® Ultra (Perkin Elmer, Waltham, MA, USA) time-resolved fluorescence resonance energy transfer (TR-FRET) assay. The assay measures the ability of GSK-3β to phosphorylate a specific substrate, human Muscle Glycogen Synthase (ULight-GS ([…]/pSer657)), in the presence and absence of the identified ligands. […] Specifically, IC50 values were (14.81 ± 0.55) μM and (15.25 ± 1.34) μ[…] and G12, respectively (Figure 5). The GSK-3β kinase assay was run in 384 well microplates (OptiPlate^TM-384, White, Perkin Elmer) with a total reaction volume of 20 μL. The inhibitory potency against human recombinant GSK-3β was evaluated using the LANCE® Ultra (Perkin Elmer) time-resolved fluorescence resonance energy transfer (TR-FRET) by measuring the phosphorylation of the specific substrate, human Muscle Glycogen Synthase (ULight-GS ([…]/pSer657)), according to the manufacturer's instructions. […] The reaction was initiated by adding 50 nM of the substrate ULight-[…] and 1 μM ATP. The mixture was incubated for 1 h at 23 °C. Afterward, the reaction was stopped by adding 8 mM EDTA. After 5 min, the anti-phospho-GS antibody labeled with europium chelate was added. 1 h later, the kinase reaction was monitored by irradiation at 320 nm, and the fluorescence was measured at 615 and 665 nm, using EnVision 2014 Multilabel Reader (PerkinElmer). The calculated signal ratio at 665/615 nm was proportional to the extent of ULight-GS phosphorylation. The compounds were screened at four concentrations (1-5-50-100 μM). For selected compounds, dose-response curves, ranging from 30 nM up to 200 μM, were performed. Dose-response curves were run in three independent experiments, each performed in three technical replicates. IC50 values (concentrations causing half-maximal response or enzyme inhibition) were determined by non-linear regression analysis of the Log [concentration]/response curves generated with mean replicate values using a four parameter Hill equation curve fitting with GraphPad Prism 8 (GraphPad Software Inc., San Diego, CA, USA).
A general note: In TR-FRET formats the signal depends on donor and acceptor labels being close together.

The target in assay [2] is T2, LOK1 (Homo sapiens, UniProt O94804).
T2 construct: purchased Eurofins (Kinase Diversity Panel service)
Description: Eurofins Kinase Diversity Panel, LOK1. In kind it is biochemical. The conditions noted are these: 20 µM compound; ATP at Km ± 15 µM; read-out: inhibitory effect on LOK1. On the procedure: (§1) To further characterize the inhibitory activity of the two selected fragments, the selectivity of G5 and G12 towards a panel of 58 kinases of the humane proteome was evaluated using the “Kinase screening and profiling” service of Eurofins, Luxembourg (Kinase Diversity Panel). […] Results are reported in Supplementary Figures S2 and S3.

Assay [3] has as its target T3, AMPK1α (Homo sapiens, UniProt Q13131).
T3 construct: purchased Eurofins (Kinase Diversity Panel service)
Put plainly: Eurofins Kinase Diversity Panel, AMPK1α. Type of assay: biochemical. The settings on record: 20 µM compound; ATP at Km ± 15 µM. The procedure:
as §1

Assay [4] deals with T4, MEK1 (Homo sapiens, UniProt Q02750).
T4 construct: purchased Eurofins (Kinase Diversity Panel service)
Put plainly: Eurofins Kinase Diversity Panel, MEK1. In kind it is biochemical. The conditions noted are these: 20 µM compound; ATP at Km ± 15 µM. The procedure:
as §1

For assay [5], the system named is CDKs. Put plainly: Eurofins Kinase Diversity Panel, CDKs. The settings on record: 20 µM compound; ATP at Km ± 15 µM. In kind it is biochemical, human. On the procedure:
as §1

For assay [6], the target named is T1, GSK-3β. Description: MicroScale Thermophoresis (MST) binding to fluorescently labeled GSK-3β. Set-up: made in house; host or cells: Sf9 cells. The conditions noted are these: for MST binding check, displacement assay: preincubation with 3 mM AMP-PNP, data not shown. On the procedure: MicroScale Thermophoresis (MST) experiments were conducted in triplicate on a Monolith NT.115 Pico system (NanoTemper Technologies, Munich, Germany).
The MST technique was used both for hit binding and for affinity (kd) determination.
GSK-3β was labeled with the His-tag RED-tris-NTA label 2nd generation (Nanotemper Technologies) following Nanotemper technology protocol. The 100 nM stock labeled protein solution was used at 20 nM concentration to roughly start from 7000 fluorescence counts in each screening experiment.
GSK-3β was labelled also using RED-NHS ammine dye (Nanotemper Technologies) following the manufacturer’s protocol. The obtained ammine-labeled protein was used at 20 nM concentration to roughly start the experiments from 6000 fluorescence counts.
Binding tests were performed on eight capillaries with a constant concentration of the labeled protein (20 nM), to detect the effect induced by the compounds on the fluorescence signal (in the presence or absence of 3 mM AMP-PNP). Protein in assay buffer in the presence of 5% DMSO was the negative control.
Assay buffer: Phosphate buffer 0.1 M pH 7.2, 5 mM MgCl2, 0.001% Tween80, 0.1% PEG8000. Experiments were performed in triplicates. Data elaboration and plots were performed using MO.Control Nanotemper software.
In general terms: In MST a laser heats a spot of the sample, and binding alters the fluorescence response.

Assay [7] addresses T5, CDK9 (Homo sapiens, UniProt P50750).
T5 construct: purchased Eurofins (Kinase Diversity Panel service)
Put plainly: Eurofins Kinase Diversity Panel, CDK9. In kind it is biochemical. The settings on record: 20 µM compound; ATP at Km ± 15 µM; read-out: inhibitory effect on CDK9. The procedure: as §1

Assay [8] deals with T6, TAK1 (Homo sapiens, UniProt O43318).
T6 construct: purchased Eurofins (Kinase Diversity Panel service)
T6 sequence (O43318 1-303 limits assumed): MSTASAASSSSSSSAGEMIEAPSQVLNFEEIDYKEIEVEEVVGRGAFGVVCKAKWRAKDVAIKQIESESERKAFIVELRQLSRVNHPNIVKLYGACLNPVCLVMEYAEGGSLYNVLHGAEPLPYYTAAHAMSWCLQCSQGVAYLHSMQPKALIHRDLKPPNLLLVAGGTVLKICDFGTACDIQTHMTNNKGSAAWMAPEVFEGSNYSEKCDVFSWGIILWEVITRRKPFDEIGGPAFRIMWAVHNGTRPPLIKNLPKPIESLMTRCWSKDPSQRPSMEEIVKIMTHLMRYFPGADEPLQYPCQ
Description: Eurofins Kinase Diversity Panel, TAK1. In kind it is biochemical. The settings on record: 20 µM compound; ATP at Km ± 15 µM; read-out: inhibitory effect on TAK1. On the procedure: as §1

In assay [9] the target is T7, MLK1 (Homo sapiens, UniProt P80192).
T7 construct: purchased Eurofins (Kinase Diversity Panel service)
Description: Eurofins Kinase Diversity Panel, MLK1. In kind it is biochemical. The conditions noted are these: 20 µM compound; ATP at Km ± 15 µM. On the procedure: as §1

Assay [10] concerns the target T8, ABL (Homo sapiens, UniProt P00519).
T8 construct: purchased Eurofins (Kinase Diversity Panel service)
Description: Eurofins Kinase Diversity Panel, ABL. In kind it is biochemical. The conditions noted are these: 20 µM compound; ATP at Km ± 15 µM. On the procedure:
as §1

T1 sequence (P49841 whole entry): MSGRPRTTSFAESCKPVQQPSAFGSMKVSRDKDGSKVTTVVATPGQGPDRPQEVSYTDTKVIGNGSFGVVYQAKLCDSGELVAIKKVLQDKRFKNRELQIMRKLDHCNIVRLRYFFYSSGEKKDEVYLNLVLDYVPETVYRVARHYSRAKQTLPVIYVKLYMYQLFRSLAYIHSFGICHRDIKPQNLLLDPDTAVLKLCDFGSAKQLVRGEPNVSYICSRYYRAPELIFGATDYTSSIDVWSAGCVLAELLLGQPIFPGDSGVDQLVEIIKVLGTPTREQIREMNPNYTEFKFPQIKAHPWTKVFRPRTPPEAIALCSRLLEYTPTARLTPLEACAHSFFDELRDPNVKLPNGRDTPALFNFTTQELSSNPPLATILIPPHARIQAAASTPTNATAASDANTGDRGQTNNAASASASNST
T2 sequence (O94804 whole entry): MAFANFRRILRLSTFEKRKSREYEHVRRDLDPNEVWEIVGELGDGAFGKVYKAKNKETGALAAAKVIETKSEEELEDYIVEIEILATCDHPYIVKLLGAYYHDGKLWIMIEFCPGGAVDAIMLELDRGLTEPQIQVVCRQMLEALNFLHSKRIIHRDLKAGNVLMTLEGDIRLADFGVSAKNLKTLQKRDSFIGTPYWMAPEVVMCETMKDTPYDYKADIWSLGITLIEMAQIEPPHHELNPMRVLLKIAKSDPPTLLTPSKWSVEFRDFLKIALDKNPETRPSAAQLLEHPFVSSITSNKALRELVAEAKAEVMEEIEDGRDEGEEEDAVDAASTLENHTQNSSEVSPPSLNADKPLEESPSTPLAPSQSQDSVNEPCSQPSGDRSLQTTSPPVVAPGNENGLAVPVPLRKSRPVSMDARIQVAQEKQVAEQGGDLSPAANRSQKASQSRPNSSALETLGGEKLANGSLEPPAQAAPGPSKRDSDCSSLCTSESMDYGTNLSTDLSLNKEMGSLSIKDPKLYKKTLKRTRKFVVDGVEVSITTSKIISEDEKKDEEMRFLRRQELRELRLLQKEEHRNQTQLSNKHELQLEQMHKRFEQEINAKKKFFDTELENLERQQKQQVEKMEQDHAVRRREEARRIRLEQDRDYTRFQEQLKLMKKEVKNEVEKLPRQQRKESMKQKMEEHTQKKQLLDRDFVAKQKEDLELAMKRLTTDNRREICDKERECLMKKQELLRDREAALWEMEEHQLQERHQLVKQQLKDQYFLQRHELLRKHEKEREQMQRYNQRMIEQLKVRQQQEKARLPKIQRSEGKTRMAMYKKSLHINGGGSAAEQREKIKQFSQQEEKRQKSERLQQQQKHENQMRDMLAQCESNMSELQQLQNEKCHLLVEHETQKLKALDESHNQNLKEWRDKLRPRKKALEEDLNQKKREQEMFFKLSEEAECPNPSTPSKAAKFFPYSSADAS
T4 sequence (Q02750 whole entry): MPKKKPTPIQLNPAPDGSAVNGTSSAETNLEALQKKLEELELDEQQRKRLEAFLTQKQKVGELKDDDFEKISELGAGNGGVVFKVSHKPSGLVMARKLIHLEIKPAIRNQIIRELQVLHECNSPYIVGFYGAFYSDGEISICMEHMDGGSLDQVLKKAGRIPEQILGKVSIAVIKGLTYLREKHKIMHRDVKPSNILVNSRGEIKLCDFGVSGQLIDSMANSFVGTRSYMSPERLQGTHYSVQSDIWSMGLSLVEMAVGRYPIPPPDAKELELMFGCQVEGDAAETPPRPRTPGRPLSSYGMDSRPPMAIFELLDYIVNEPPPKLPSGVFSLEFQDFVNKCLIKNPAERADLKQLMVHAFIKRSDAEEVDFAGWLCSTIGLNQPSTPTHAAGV
T7 sequence (P80192 whole entry): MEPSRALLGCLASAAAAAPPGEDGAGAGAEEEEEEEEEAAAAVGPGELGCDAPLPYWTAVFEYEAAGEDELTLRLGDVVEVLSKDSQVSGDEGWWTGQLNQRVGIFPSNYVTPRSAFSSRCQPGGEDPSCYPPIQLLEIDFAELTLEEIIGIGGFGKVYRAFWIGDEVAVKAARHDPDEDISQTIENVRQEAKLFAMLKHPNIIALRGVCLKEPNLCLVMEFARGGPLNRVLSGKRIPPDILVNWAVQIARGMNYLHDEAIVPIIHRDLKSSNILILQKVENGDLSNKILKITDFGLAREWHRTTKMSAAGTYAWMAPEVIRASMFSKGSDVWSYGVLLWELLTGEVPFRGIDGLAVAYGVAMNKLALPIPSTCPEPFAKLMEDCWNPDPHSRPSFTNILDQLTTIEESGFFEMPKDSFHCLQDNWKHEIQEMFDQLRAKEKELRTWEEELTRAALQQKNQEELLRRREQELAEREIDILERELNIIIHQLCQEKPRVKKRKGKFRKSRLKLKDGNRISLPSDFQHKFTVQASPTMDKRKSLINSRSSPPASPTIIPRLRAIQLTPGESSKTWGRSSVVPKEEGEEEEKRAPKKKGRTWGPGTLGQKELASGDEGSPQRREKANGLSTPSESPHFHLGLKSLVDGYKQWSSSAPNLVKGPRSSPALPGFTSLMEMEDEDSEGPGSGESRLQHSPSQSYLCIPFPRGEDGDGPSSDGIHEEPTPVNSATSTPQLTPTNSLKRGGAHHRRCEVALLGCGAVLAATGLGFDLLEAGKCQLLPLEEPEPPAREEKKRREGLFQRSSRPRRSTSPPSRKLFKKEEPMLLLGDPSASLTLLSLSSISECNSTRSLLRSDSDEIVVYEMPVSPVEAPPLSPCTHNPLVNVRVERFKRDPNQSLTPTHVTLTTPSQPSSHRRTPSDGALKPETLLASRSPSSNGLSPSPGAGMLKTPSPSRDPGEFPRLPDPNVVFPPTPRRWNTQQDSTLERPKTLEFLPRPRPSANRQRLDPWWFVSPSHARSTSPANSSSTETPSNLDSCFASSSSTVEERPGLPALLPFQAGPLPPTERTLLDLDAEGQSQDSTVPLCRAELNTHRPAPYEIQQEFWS
T3 sequence (Q13131 whole entry): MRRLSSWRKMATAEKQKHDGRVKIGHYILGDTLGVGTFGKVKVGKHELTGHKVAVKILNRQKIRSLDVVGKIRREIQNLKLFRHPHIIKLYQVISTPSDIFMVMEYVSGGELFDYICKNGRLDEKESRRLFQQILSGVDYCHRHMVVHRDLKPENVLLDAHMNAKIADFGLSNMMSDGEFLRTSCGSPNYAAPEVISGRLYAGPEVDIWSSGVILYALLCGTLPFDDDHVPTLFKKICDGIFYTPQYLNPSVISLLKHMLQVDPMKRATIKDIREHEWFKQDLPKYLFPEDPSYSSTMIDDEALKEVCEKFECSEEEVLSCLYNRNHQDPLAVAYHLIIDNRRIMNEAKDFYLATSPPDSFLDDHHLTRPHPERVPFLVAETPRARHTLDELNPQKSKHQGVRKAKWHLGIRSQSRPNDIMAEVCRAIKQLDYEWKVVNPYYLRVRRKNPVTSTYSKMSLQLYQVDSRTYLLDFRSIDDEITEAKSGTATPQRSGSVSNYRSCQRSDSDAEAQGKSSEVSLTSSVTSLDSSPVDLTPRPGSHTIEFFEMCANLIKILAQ
T3 sequence (Q9Y478 whole entry partner): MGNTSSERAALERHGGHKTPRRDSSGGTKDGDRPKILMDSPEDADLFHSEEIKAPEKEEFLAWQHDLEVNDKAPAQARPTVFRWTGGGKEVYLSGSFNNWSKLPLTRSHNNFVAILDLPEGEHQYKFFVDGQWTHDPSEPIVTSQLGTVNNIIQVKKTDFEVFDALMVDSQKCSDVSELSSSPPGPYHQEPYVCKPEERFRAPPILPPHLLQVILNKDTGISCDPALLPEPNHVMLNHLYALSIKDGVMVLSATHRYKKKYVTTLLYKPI
T3 sequence (P54619 whole entry partner): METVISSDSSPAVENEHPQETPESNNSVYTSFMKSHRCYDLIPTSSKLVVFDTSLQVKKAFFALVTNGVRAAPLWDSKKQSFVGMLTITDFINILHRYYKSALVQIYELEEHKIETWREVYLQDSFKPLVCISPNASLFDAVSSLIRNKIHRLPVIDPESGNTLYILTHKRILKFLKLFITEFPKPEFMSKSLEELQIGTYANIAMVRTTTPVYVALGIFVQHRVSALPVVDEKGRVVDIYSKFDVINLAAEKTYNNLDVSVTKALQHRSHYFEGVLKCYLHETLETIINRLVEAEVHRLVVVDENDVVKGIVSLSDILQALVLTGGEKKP

Usually IC50 stands for the midpoint of a concentration-inhibition curve. In assay [1], `CS(=O)(=O)N1CC(c2nc(N)ncc2-c2ccc(F)cc2)C1` [G5] came in with an inhibition at 1 µM of 0.3 ± 0.1%, an inhibition at 5 µM of 13.4 ± 2%, an inhibition at 50 µM of 69.4 ± 2% and an inhibition at 100 µM of over 80%. Besides, inhibition in assay [1] was half-maximal at 14.8 ± 0.55 µM (IC50). For the same molecule, the inhibition at 20 µM in assay [2] was 21%. Besides, the “inhibitory effect on AMPK1α” value in [3] was “only marginally affected”. Further, the “inhibitory effect on MEK1” value in assay [4] is “only marginally affected”. Moreover, the “inhibitory activity on CDKs” value in assay [5] is “did not show any evident inhibitory activity”. Also, in [6], the “MST binding check, displacement assay” value is reported as “maintained their ability to bind GSK-3β”.

For orientation: Kd means the free concentration of one partner at which half of the binding sites on the other are occupied at equilibrium, for simple one-to-one binding. In the case of `O=C(Nc1ccccn1)C1CCN(C(=O)CCc2ccccc2F)C1` (stereo not drawn) [G12], in assay [1], the inhibition at 1 µM worked out at 8.5 ± 0.1%, the inhibition at 5 µM worked out at 15.2 ± 2.7%, the inhibition at 50 µM came to 71.4 ± 1.7% and the inhibition at 100 µM was over 80%. The molecule also had a half-maximal inhibitory concentration (IC50) in assay [1] of 15.2 ± 1.34 µM. Besides, the inhibition at 20 µM in [7] was found to be 50%. Moreover, in [8], the inhibition at 20 µM is 20%. Also, the “inhibitory effect on MLK1” value in [9] is listed as “no inhibition”. Also, in [10], the “inhibitory effect on ABL” value is given as “no inhibitory effect”. In addition, the Kd in assay [6] (complete binding curve, average of three experiments ± SD, read-out: affinity parameter (kd), MST) is 66.5 ± 31.8 µM. Also, the “MST binding check, displacement assay” value in assay [6] was “maintained their ability to bind GSK-3β”.
